Converted amounts (≈) assume the structure as drawn.
Experiment: physchem
Conditions: water

`COc1cccc(OC)c1-c1ccc(C[C@H](NC(=O)c2c(Cl)cccc2Cl)C(=O)O)cc1` showed a solubility of 219 µg/mL (≈ 462 µM).

With `Cc1cccc(Br)c1C(=O)N[C@@H](Cc1ccc(NC(=O)c2c(Cl)cccc2Cl)cc1)C(=O)O` the solubility was 330 µg/mL (≈ 600 µM).

Source: ChEMBL document CHEMBL1145221, “2,3-Diphenylpropionic acids as potent VLA-4 antagonists” (Bioorg Med Chem Lett, 2005)
